# Source: patent publication US20020037933A1, “Management of septic shock” (priority 2000, published 2002)
# Test system: endotoxemic pigs (E. coli endotoxin infusion)
# [1] = during the endotoxemic period, versus fat emulsion
compound,measurement,setting,value
"CC(C)c1cccc(C(C)C)c1O [propofol, 2,6-diisopropylphenol]",deaths from hypotension and/or release of gut bacteria into the bloodstream,already anaesthetised endotoxaemic pigs,No deaths
same,arterial carbon dioxide tension (PaCO2),[1],lower
same,arterial oxygen tension (PaO2),[1],higher
same,counteracting endotoxin induced deterioration of arterial oxygen tension (PaO2),endotoxaemic pigs,effective
